Data as given in PubChem BioAssay (NCI).
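Each compound was tested at five concentrations against cells in 96-well plates for 48 hours. TGI denotes the concentration required for complete inhibition of growth.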

Columns and labels:
Assay in all cases: inhibition of tumour cell growth, NCI panel, 48 h
HCC-2998 colon = system: HCC-2998 colon
HT29 colon = system: HT29 colon
SNB-19 CNS = system: SNB-19 CNS
UO-31 renal = system: UO-31 renal
SK-MEL-28 melanoma = system: SK-MEL-28 melanoma
SK-OV-3 ovarian = system: SK-OV-3 ovarian
UACC-257 melanoma = system: UACC-257 melanoma
OVCAR-3 ovarian = system: OVCAR-3 ovarian
TK-10 renal = system: TK-10 renal
IGROV1 ovarian = system: IGROV1 ovarian
A549 NSCLC = system: A549 NSCLC
BT-549 breast = system: BT-549 breast
SF-268 CNS = system: SF-268 CNS
HS 578T breast = system: HS 578T breast
M14 melanoma = system: M14 melanoma
NCI-H460 lung = system: NCI-H460 lung
MDA-N = system: MDA-N

Structure (SMILES)	TGI (HCC-2998 colon) [µM]	TGI (HT29 colon) [µM]	TGI (SNB-19 CNS) [µM]	TGI (UO-31 renal) [µM]	TGI (SK-MEL-28 melanoma) [µM]	TGI (SK-OV-3 ovarian) [µM]	TGI (UACC-257 melanoma) [µM]	TGI (OVCAR-3 ovarian) [µM]	TGI (TK-10 renal) [µM]	TGI (IGROV1 ovarian) [µM]	TGI (A549 NSCLC) [µM]	TGI (BT-549 breast) [µM]	TGI (SF-268 CNS) [µM]	TGI (HS 578T breast) [µM]	TGI (M14 melanoma) [µM]	TGI (NCI-H460 lung) [µM]	TGI (MDA-N) [µM]
CSc1nc(-c2ccccc2)[nH]c(=O)n1	> 100	> 100	> 100	> 100	> 100	> 100	> 100	> 100	> 100	> 100	> 100	> 100	> 100	> 100	> 100	–	–
CCCCCCCCCCCCCCCCc1c(C(=O)OC)nc(NC#N)[nH]c1=O	> 25	> 25	> 25	> 25	> 25	> 25	> 25	> 25	> 25	–	> 25	–	> 25	–	> 25	> 25	–
COc1cccc([C@@H]2C/C(=N\NC(=O)C(=O)N[C@@H](C)c3ccccc3)c3ccccc3N2)c1	> 100	–	> 100	> 100	> 100	> 100	> 100	> 100	> 100	–	> 100	–	> 100	> 100	> 100	–	> 100
CCOC(=O)C(C)NC(=O)NC12CC3CC(CC(F)(C3)C1)C2 (centres undefined)	> 100	> 100	> 100	> 100	> 100	> 100	> 100	> 100	> 100	> 100	> 100	–	–	–	> 100	> 100	–
CCN(CC)CCCNc1ccc([N+](=O)[O-])c2nc3ccccc3c(N)c12	–	1.81	5.5	> 10	> 10	3.4	> 10	8.75	> 10	2.6	2.11	3.32	> 10	1.91	2.43	1.44	–
O=S1Nc2cccc(C(F)(F)F)c2S1 (centres undefined)	64.4	> 100	> 100	> 100	> 100	> 100	> 100	> 100	> 100	> 100	> 100	–	> 100	–	> 100	> 100	–
CC1OC(n2cc(F)c(=O)[nH]c2=O)CCC1=O (centres undefined)	> 100	> 100	> 100	> 100	–	> 100	> 100	–	> 100	> 100	> 100	–	> 100	–	> 100	> 100	–
COc1ccc2c(=O)c3ccoc3[nH]c2c1	> 100	> 100	> 100	> 100	> 100	> 100	> 100	–	> 100	> 100	–	> 100	> 100	> 100	> 100	> 100	–
